Assay results reported in US8987456B2, “3-pyridyl carboxamide-containing spleen tyrosine kinase (SYK) inhibitors” (Merck Sharp & Dohme Corp., priority 2011, dated 2015).
Where two headings read alike, the source gives them in different places.

Legend:
[1] = biological target: T1, recombinant human GST-SYK (Homo sapiens, UniProt P43405); assay: Homogeneous Time-Resolved Fluorescence (HTRF) assay for the recombinant human Syk enzyme; type: biochemical; settings: 5 pM GST-SYK, 25 μM ATP, 10-dose titration
T1 construct: purchased Carna Biosciences 08-176
Procedure: Biological Assay Homogeneous Time-Resolved Fluorescence (HTRF) Assay for the Recombinant Human Syk Enzyme
A recombinant GST-hSYK fusion protein was used to measure potency of compounds to inhibit human Syk activity. […] Final volume of the reaction was 10 μL. Phosphorylation of the peptide was allowed to proceed for 45′ at room temperature. To quench the reaction and detect the phosphorylated product, 2 nM of a Europium-anti-phosphotyrosine antibody (Perkin Elmer #AD0161) and 70 nM SA-APC (Perkin-Elmer #CR130-100) were added together in 15 mM Tris pH 7.5, 40 mM EDTA, 0.01% tween 20. Final volume of the quenching solution was 10 μL. The resulting HTRF signal was measured after 30 minutes on an EnVision (Perkin-Elmer) reader using a time-resolved fluorescence protocol.

[2] = test system: allergic rhinitis; settings: dosed intranasally, phase I/II study; cited from earlier work
[3] = test system: allergic rhinitis; settings: phase II clinical trial; cited from earlier work

## Cc1cc(C)nc(Nc2cc(NCC(N)C(F)(F)F)ncc2C(N)=O)c1 (racemic) [Example 2.3, 6-[(2-amino-3,3,3-trifluoropropyl)amino]-4-[(4,6-dimethylpyridin-2-yl)amino]pyridine-3-carboxamide]
[1]; read-out: IC50
  IC50: 3.5 µM
[1]; read-out: rhSYK Activity
  IC50: 1 to 10 µM

## Cc1cc(C)nc(Nc2cc(NCC3(N)CCOC3)ncc2C(N)=O)c1 (racemic) [Example 2.6, 6-{[(3-aminotetrahydrofuran-3-yl)methyl]amino}-4-[(4,6-dimethylpyridin-2-yl)amino]pyridine-3-carboxamide]
[1]; read-out: rhSYK Activity
  IC50: 1 to 10 µM

## CCC(C)(N)CNc1cc(Nc2cccc(C)n2)c(C(N)=O)cn1 (racemic) [Example 2.9, 6-[(2-amino-2-methylbutyl)amino]-4-[(6-methylpyridin-2-yl)amino]pyridine-3-carboxamide]
[1]; read-out: rhSYK Activity
  IC50: 0.1 to 1 µM

## Cc1cc(C)nc(Nc2cc(NC(C)CN)ncc2C(N)=O)c1 (racemic) [Example 2.10, 6-[(2-amino-1-methylethyl)amino]-4-[(4,6-dimethylpyridin-2-yl)amino]pyridine-3-carboxamide]
[1]; read-out: IC50
  IC50: 3.2 µM
[1]; read-out: rhSYK Activity
  IC50: 1 to 10 µM

## CCCC(N)CNc1cc(Nc2cccc(C)n2)c(C(N)=O)cn1 (racemic) [Example 2.11, 6-[(2-aminopentyl)amino]-4-[(6-methylpyridin-2-yl)amino]pyridine-3-carboxamide]
[1]; read-out: rhSYK Activity
  IC50: 0.01 to 0.1 µM

## Cc1cccc(Nc2cc(NCC(N)C3CC3)ncc2C(N)=O)n1 (racemic) [Example 2.12, 6-[(2-amino-2-cyclopropylethyl)amino]-4-[(6-methylpyridin-2-yl)amino]pyridine-3-carboxamide]
[1]; read-out: rhSYK Activity
  IC50: 0.1 to 1 µM

## Cc1cc(C)nc(Nc2cc(N[C@@H]3COC[C@H]3N)ncc2C(N)=O)c1 (relative stereo) [Example 2.4, rel-6-{[(3S,4S)-4-aminotetrahydrofuran-3-yl]amino}-4-[(4,6-dimethylpyridin-2-yl)amino]pyridine-3-carboxamide]
[1]; read-out: rhSYK Activity
  IC50: 1 to 10 µM

## Cc1cccc(Nc2cc(N[C@@H]3CCCC[C@H]3N)ncc2C(N)=O)n1 (relative stereo) [Example 2.8, rel-6-{[(1R,2R)-2-aminocyclohexyl]amino}-4-[(6-methylpyridin-2-yl)amino]pyridine-3-carboxamide]
[1]; read-out: rhSYK Activity
  IC50: 0.1 to 1 µM

## NC(=O)c1cnc(N[C@@H]2CCCC[C@@H]2N)cc1Nc1cccc(C(F)(F)F)n1 [Example 1.1, 6-{[(1R,2S)-2-aminocyclohexyl]amino}-4-{[6-(trifluoromethyl)pyridin-2-yl]amino}pyridine-3-carboxamide]
[1]; read-out: IC50
  IC50: 0.0035 µM
[1]; read-out: rhSYK Activity
  IC50: < 0.01 µM

## Cc1cccc(Nc2cc(N[C@@H]3CCCC[C@@H]3N)ncc2C(N)=O)n1 [Example 1.2, 6-{[(1R,2S)-2-aminocyclohexyl]amino}-4-[(6-methylpyridin-2-yl)amino]pyridine-3-carboxamide]
[1]; read-out: IC50
  IC50: 0.0045 µM
[1]; read-out: rhSYK Activity
  IC50: 0.01 to 0.1 µM

## Cc1cccc(Nc2cc(NCCN)ncc2C(N)=O)n1 [Example 1.3, 6-[(2-aminoethyl)amino]-4-[(6-methylpyridin-2-yl)amino]pyridine-3-carboxamide]
[1]; read-out: IC50
  IC50: 0.17 µM
[1]; read-out: rhSYK Activity
  IC50: 0.1 to 1 µM

## NC(=O)c1cnc(N[C@@H]2CCCC[C@@H]2N)cc1Nc1cccc(-n2nccn2)n1 [Example 1.4, 6-{[(1R,2S)-2-aminocyclohexyl]amino}-4-{[6-(2H-1,2,3-triazol-2-yl)pyridin-2-yl]amino}pyridine-3-carboxamide]
[1]; read-out: rhSYK Activity
  IC50: < 0.01 µM

## NC(=O)c1cnc(N[C@@H]2CCCC[C@@H]2N)cc1Nc1ccc2ccccc2n1 [Example 1.6, 6-{[(1R,2S)-2-aminocyclohexyl]amino}-4-(quinolin-2-ylamino)pyridine-3-carboxamide]
[1]; read-out: IC50
  IC50: 0.0058 µM
[1]; read-out: rhSYK Activity
  IC50: < 0.01 µM

## Cc1nc(Nc2cc(N[C@@H]3CCCC[C@@H]3N)ncc2C(N)=O)ccc1F [Example 1.7, 6-{[(1R,2S)-2-aminocyclohexyl]amino}-4-[(5-fluoro-6-methylpyridin-2-yl)amino]pyridine-3-carboxamide]
[1]; read-out: rhSYK Activity
  IC50: 0.01 to 0.1 µM

## C[C@H](N)CNc1cc(Nc2cc(-c3cnn(C)c3)cc(-c3cnn(C)c3)n2)c(C(N)=O)cn1 [Example 1.8, 6-{[(2S)-2-aminopropyl]amino}-4-{[4,6-bis(1-methyl-1H-pyrazol-4-yl)pyridin-2-yl]amino}pyridine-3-carboxamide]
[1]; read-out: rhSYK Activity
  IC50: < 0.01 µM

## Cc1nc(Nc2cc(NC[C@H](C)N)ncc2C(N)=O)ccc1-c1cnn(C)c1 [Example 1.9, 6-{[(2S)-2-aminopropyl]amino}-4-{[6-methyl-5-(1-methyl-1H-pyrazol-4-yl)pyridin-2-yl]amino}pyridine-3-carboxamide]
[1]; read-out: rhSYK Activity
  IC50: < 0.01 µM

## CCC(N)CNc1cc(Nc2cccc(C)n2)c(C(N)=O)cn1 (centres unmarked) [Example 2.1, 6-[(2-aminobutyl)amino]-4-[(6-methylpyridin-2-yl)amino]pyridine-3-carboxamide]
[1]; read-out: rhSYK Activity
  IC50: 0.1 to 1 µM

## Cc1cc(C)nc(Nc2cc(NCCN)ncc2C(N)=O)c1 [Example 2.2, 6-[(2-aminoethyl)amino]-4-[(4,6-dimethylpyridin-2-yl)amino]pyridine-3-carboxamide]
[1]; read-out: rhSYK Activity
  IC50: 0.01 to 0.1 µM

## Cc1cc(C)nc(Nc2cc(NCC3(N)CCOCC3)ncc2C(N)=O)c1 [Example 2.5]
[1]; read-out: rhSYK Activity
  IC50: 1 to 10 µM

## COC[C@H](N)CNc1cc(Nc2cccc(C)n2)c(C(N)=O)cn1 [Example 2.7, 6-{[(2R)-2-amino-3-methoxypropyl]amino}-4-[(6-methylpyridin-2-yl)amino]pyridine-3-carboxamide]
[1]; read-out: rhSYK Activity
  IC50: 0.1 to 1 µM

## Cc1nc(Nc2cc(NCCN)ncc2C(N)=O)ccc1Br [Example 2.13, 6-[(2-aminoethyl)amino]-4-[(5-bromo-6-methylpyridin-2-yl)amino]pyridine-3-carboxamide]
[1]; read-out: IC50
  IC50: 0.066 µM
[1]; read-out: rhSYK Activity
  IC50: 0.01 to 0.1 µM

## Cc1cc(C)nc(Nc2cc(NC[C@H](C)N)ncc2C(N)=O)c1 [Example 3.1, 6-{[(2S)-2-aminopropyl]amino}-4-[(4,6-dimethylpyridin-2-yl)amino]pyridine-3-carboxamide]
[1]; read-out: rhSYK Activity
  IC50: 0.01 to 0.1 µM

## Cc1cc(C)nc(Nc2cc(N[C@@H]3[C@H](N)CCCC3(F)F)ncc2C(N)=O)c1 [Example 3.2, 6-{[(1R,6R)-6-amino-2,2-difluorocyclohexyl]amino}-4-[(4,6-dimethylpyridin-2-yl)amino]pyridine-3-carboxamide]
[1]; read-out: IC50
  IC50: 0.51 µM
[1]; read-out: rhSYK Activity
  IC50: 0.1 to 1 µM

## Cc1cc(C)nc(Nc2cc(N[C@H]3[C@@H](N)CCCC3(F)F)ncc2C(N)=O)c1 [Example 3.3, 6-{[(1S,6S)-6-amino-2,2-difluorocyclohexyl]amino}-4-[(4,6-dimethylpyridin-2-yl)amino]pyridine-3-carboxamide]
[1]; read-out: rhSYK Activity
  IC50: 0.01 to 0.1 µM

## Oc1cccc(Nc2ncc(F)c(Nc3cccc(O)c3)n2)c1 [Example R112]
[2]
  PGD2: statistically significant decrease
  clinical safety: safe across a range of indicators
[3]
  efficacy versus placebo: lack of efficacy versus placebo
